Where a name gives a salt, the structure may show the parent alone. Read-outs that look alike come from different tables or passages of the source.
Target: hTRPV3 (Homo sapiens (Human), UniProt Q8NET8)
Test: Whole-cell patch clamp, hTRPV3 Phase 1 / Phase 2 currents
Format: cell-based
Source text: Whole-cell patch clamp experiments permit the detection of currents through the TRPV3 channel in the cell line described above. A glass electrode is brought into contact with a single cell and the membrane is then ruptured, permitting control of the voltage of the cell membrane and measurement of currents flowing across the membrane using the amplifier attached to the electrode. A perfusion system permits control of the extracellular solution, including the addition of blockers and activators of the current. The current can be activated by heating this solution to 28° C. or warmer or by addition of 20 μM 2-APB to the solution.
TRPV3 cells were induced 20-48 hours, removed from growth plates, and replated at low density (to attain good single-cell physical separation) on glass coverslips for measurement. In some cases, cells were grown in low density overnight on glass coverslips. Patch clamp recordings were made in the whole-cell mode with a holding potential of −40 mV. Every 5 seconds, a voltage ramp was applied from −120 to +100 mV, 400 ms in duration. Currents elicited were quantified at −80 mV and +80 mV. […] External solution was Ringer's solution described above.
P1 refers to the Phase 1 current for human (h) TRPV3, and P2 refers to the Phase 2 current for human (h) TRPV3.
In Tables 3 and 4, Phase 1 refers to Phase 1 current for human (h) TRPV3 or rat (r) TRPV3, and Phase 2 refers to Phase 2 current for human (h) TRPV3 or rat (r) TRPV3. The hTRPV3 and rTRPV3 assays were performed as described herein. hERG refers to the inhibition the human ERG (hERG) channel. NaV1.5, refers to the pore forming aL-subunit of the voltage-dependent cardiac Na(+) channel and is an integral membrane protein involved in the initiation and conduction of action potentials. hTRPV3 HAMA IC50 refers to the IC50 of TRPV3 cells stably expressed in TRex-293 cells. Solubility Ringer refers to the compounds' solubility in Ringer's solution. LM T1/2 refers to liver microsome half-lives in either rat or human liver microsomes. FLIPR IC50 refers to the IC50 of the test compounds against recombinant hTRPV3 cells.

[1] = Phase 1 current, inward, whole-cell patch clamp, read-out: hTRPV3 Patch P1 Inwd
[2] = Phase 1 current, read-out: hTRPV3 (nM) (Phase 1)
[3] = Phase 2 current, inward, whole-cell patch clamp, read-out: hTRPV3 Patch P2 Inwd
[4] = Phase 2 current, read-out: hTRPV3 (nM) (Phase 2)

Chain of hTRPV3 (Q8NET8 whole entry): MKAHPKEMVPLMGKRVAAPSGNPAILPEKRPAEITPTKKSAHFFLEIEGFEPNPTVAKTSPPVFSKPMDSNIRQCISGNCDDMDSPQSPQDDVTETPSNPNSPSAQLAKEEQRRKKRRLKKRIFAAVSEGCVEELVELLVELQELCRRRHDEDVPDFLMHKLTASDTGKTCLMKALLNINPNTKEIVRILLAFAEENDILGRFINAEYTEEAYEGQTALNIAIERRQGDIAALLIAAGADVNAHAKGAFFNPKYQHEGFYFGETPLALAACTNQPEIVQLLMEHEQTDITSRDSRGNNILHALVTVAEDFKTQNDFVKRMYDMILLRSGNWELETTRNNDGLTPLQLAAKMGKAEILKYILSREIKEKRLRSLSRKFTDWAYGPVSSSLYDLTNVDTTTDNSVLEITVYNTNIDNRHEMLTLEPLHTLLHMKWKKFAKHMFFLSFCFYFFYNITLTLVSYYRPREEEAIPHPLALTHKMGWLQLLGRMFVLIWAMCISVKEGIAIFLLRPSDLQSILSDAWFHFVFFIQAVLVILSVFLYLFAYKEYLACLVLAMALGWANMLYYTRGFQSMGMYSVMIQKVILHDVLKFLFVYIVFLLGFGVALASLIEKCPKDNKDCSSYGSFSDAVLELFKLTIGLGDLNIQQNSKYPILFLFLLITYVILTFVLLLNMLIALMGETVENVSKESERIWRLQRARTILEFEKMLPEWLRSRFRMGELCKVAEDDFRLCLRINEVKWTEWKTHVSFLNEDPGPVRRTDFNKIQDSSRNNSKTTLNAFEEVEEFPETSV

Row | SMILES | IC50 [1] [nM] | IC50 [2] [nM] | IC50 [3] [nM] | IC50 [4] [nM] | IC50 (hTRPV3 Patch P1 Inwd (nM), Phase 1 current, inward, whole-cell patch clamp) [nM] | IC50 (hTRPV3 Patch P2 Inwd (nM), Phase 2 current, inward, whole-cell patch clamp) [nM] | IC50 (hTRPV3 Patch P1 Inwd (nM)) [nM] | IC50 (read-out: hTRPV3 (nM) (Phase 1))
1 | NCc1cc(-c2ccccc2Cl)ccc1N1CC[C@H](Oc2ccc(C(F)(F)F)cn2)C1 [Compound 1-118, (S)-(2′-chloro-4-(3-(5-(trifluoromethyl)pyridin-2-yloxy)pyrrolidin-1-yl)biphenyl-3-yl)methanamine] | > 1000 | ~1300 | > 1000 | < 3200 | – | – | – | –
2 | NCc1cc(-c2ccccc2)ccc1N1CC[C@H](Oc2ccc(C(F)(F)F)cn2)C1 [Compound 1-119, (S)-(4-(3-(5-(trifluoromethyl)pyridin-2-yloxy)pyrrolidin-1-yl)biphenyl-3-yl)methanamine] | – | – | > 1000 | > 3200 | – | – | – | –
3 | COc1cc(-c2ccccc2)ccc1N1CC[C@@H](Oc2ncc(C(F)(F)F)cc2Cl)C1 [Compound 1-120, (R)-3-chloro-2-(1-(3-methoxybiphenyl-4-yl)pyrrolidin-3-yloxy)-5-(trifluoromethyl)pyridine] | – | > 3200 | – | > 3200 | > 1000 | > 1000 | – | –
4 | NCc1cc(-c2ccccc2Cl)ccc1N1CC[C@H](Oc2ncccc2Cl)C1 [Compound 1-122, (S)-(2′-chloro-4-(3-(3-chloropyridin-2-yloxy)pyrrolidin-1-yl)biphenyl-3-yl)methanamine hydrochloride] | > 1000 | > 3200 | > 1000 | < 3200 | – | – | – | –
5 | NC(=O)c1cc(-c2ccccc2)ccc1N1CCC(Oc2ccc3ccccc3n2)C1=O (stereo not drawn) [Compound 1-123, 4-(2-oxo-3-(quinolin-2-yloxy)pyrrolidin-1-yl)biphenyl-3-carboxamide] | > 1000 | > 3200 | – | – | – | – | – | –
6 | NC(=O)c1cc(Oc2ccccc2)ccc1N1CC[C@H](Oc2ccc(C(F)(F)F)cn2)C1 [Compound 1-124, (S)-5-phenoxy-2-(3-(5-(trifluoromethyl)pyridin-2-yloxy)pyrrolidin-1-yl)benzamide] | – | – | – | – | – | – | 100 to 1000 | 729
7 | NCc1cc(-c2ccccc2)ccc1N1CC[C@H](Oc2ncccc2Cl)C1 [Compound 1-125, (S)-(4-(3-(3-chloropyridin-2-yloxy)pyrrolidin-1-yl)biphenyl-3-yl)methanamine hydrochloride] | – | – | > 1000 | > 3200 | – | – | – | –
8 | OCc1cc(-c2ccccc2)ccc1N1CC[C@H](Oc2ncccc2Cl)C1 [Compound 1-126, (S)-(4-(3-(3-chloropyridin-2-yloxy)pyrrolidin-1-yl)biphenyl-3-yl)methanol] | – | – | 100 to 1000 | 369 | – | – | – | –
9 | CC(=O)NCc1cc(-c2ccccc2Cl)ccc1N1CC[C@H](Oc2ccc(C(F)(F)F)cn2)C1 [Compound 1-127, (S)—N-((2′-chloro-4-(3-(5-(trifluoromethyl)pyridin-2-yloxy)pyrrolidin-1-yl)biphenyl-3-yl)methyl)acetamide] | – | – | > 1000 | 1140 | – | – | – | –
10 | NC(=O)c1ccc(O[C@H]2CCN(c3ccc(-c4ccccc4)cc3CO)C2)nc1 [Compound 1-144, (S)-6-(1-(3-(hydroxymethyl)biphenyl-4-yl)pyrrolidin-3-yloxy)nicotinamide] | > 1000 | 1280 | > 1000 | 4220 | – | – | – | –
11 | NC(=O)c1cc(Cc2ccccc2)ccc1N1CC[C@H](Oc2ncccc2Cl)C1 [Compound 1-145, (S)-5-benzyl-2-(3-(3-chloropyridin-2-yloxy)pyrrolidin-1-yl)benzamide] | > 1000 | 1950 | 100 to 1000 | 749 | – | – | – | –
12 | OCc1cc(-c2ccccc2)ccc1N1CC[C@H](Oc2ccc(Cl)cn2)C1 [Compound 1-147, (S)-(4-(3-(5-chloropyridin-2-yloxy)pyrrolidin-1-yl)biphenyl-3-yl)methanol] | 100 to 1000 | 171 | – | – | – | – | – | –
13 | OCC(O)c1cc(-c2ccccc2)ccc1N1CC[C@H](Oc2ccc(C(F)(F)F)cn2)C1 (stereo partly drawn) [Compound 1-148, 1-(4-((S)-3-(5-(trifluoromethyl)pyridin-2-yloxy)pyrrolidin-1-yl)biphenyl-3-yl)ethane-1,2-diol] | 100 to 1000 | 550 | 100 to 1000 | 699 | – | – | – | –
14 | CCc1ccccc1-c1ccc(N2CC[C@H](Oc3ccc(C(F)(F)F)cn3)C2)c(CO)c1 [Compound 1-149, (S)-(2′-ethyl-4-(3-(5-(trifluoromethyl)pyridin-2-yloxy)pyrrolidin-1-yl)biphenyl-3-yl)methanol] | 10 to 100 | 34.7 | < 10 | 10.7 | – | – | – | –
15 | OCc1cc(-c2ccccc2F)ccc1N1CC[C@H](Oc2ccc(C(F)(F)F)cn2)C1 [Compound 1-150, (S)-(2′-fluoro-4-(3-(5-(trifluoromethyl)pyridin-2-yloxy)pyrrolidin-1-yl)biphenyl-3-yl)methanol] | 10 to 100 | 71.7 | 10 to 100 | 74.7 | – | – | – | –
16 | O=C(NCCO)c1cc(-c2ccccc2)ccc1N1CC[C@H](Oc2ccc(C(F)(F)F)cn2)C1 [Compound 1-153, (S)—N-(2-hydroxyethyl)-4-(3-(5-(trifluoromethyl)pyridin-2-yloxy)pyrrolidin-1-yl)biphenyl-3-carboxamide] | > 1000 | 4420 | – | – | – | – | – | –
17 | O=C(NCCO)c1cc(-c2ccccc2Cl)ccc1N1CC[C@H](Oc2ccc(C(F)(F)F)cn2)C1 [Compound 1-156, (S)-2′-chloro-N-(2-hydroxyethyl)-4-(3-(5-(trifluoromethyl)pyridin-2-yloxy)pyrrolidin-1-yl)biphenyl-3-carboxamide] | > 1000 | 3750 | – | – | – | – | – | –
18 | Cc1cccnc1O[C@H]1CCN(c2ccc(Oc3ccccc3)cc2C(N)=O)C1 [Compound 1-163] | > 1000 | 2180 | – | – | – | – | – | –
19 | O=C(O)c1cc(-c2ccccc2)ccc1N1CC[C@H](Oc2ccc(C(F)(F)F)cn2)C1 [Compound 1-165, (S)-4-(3-(5-(trifluoromethyl)pyridin-2-yloxy)pyrrolidin-1-yl)biphenyl-3-carboxylic acid] | > 1000 | > 3200 | – | – | – | – | – | –
20 | O=C(O)c1cc(-c2ccccc2Cl)ccc1N1CC[C@H](Oc2ccc(C(F)(F)F)cn2)C1 [Compound 1-166, (S)-2′-chloro-4-(3-(5-(trifluoromethyl)pyridin-2-yloxy)pyrrolidin-1-yl)biphenyl-3-carboxylic acid] | > 1000 | ~2210 | > 1000 | ~2230 | – | – | – | –
21 | Cc1cccnc1O[C@H]1CCN(c2ccc(-c3ccccc3)cc2C(C)O)C1 (stereo partly drawn) [Compound 1-169, 1-(4-((S)-3-(3-methylpyridin-2-yloxy)pyrrolidin-1-yl)biphenyl-3-yl)ethanol] | 100 to 1000 | 476 | 100 to 1000 | 655 | – | – | – | –
22 | OCCCc1cc(-c2ccccc2)ccc1N1CC[C@H](Oc2ncccc2C(F)(F)F)C1 [Compound 1-170, (S)-3-(4-(3-(3-(trifluoromethyl)pyridin-2-yloxy)pyrrolidin-1-yl)biphenyl-3-yl)propan-1-ol] | – | – | 100 to 1000 | 551 | – | – | – | –
23 | Cc1cccnc1O[C@H]1CCN(c2ccc(-c3ccccc3Cl)cc2C(C)O)C1 (stereo partly drawn) [Compound 1-172, 1-(2′-chloro-4-((S)-3-(3-methylpyridin-2-yloxy)pyrrolidin-1-yl)biphenyl-3-yl)ethanol] | 100 to 1000 | 882 | – | – | – | – | – | –
24 | Cc1ccccc1-c1ccc(N2CC[C@H](Oc3ccc(C(F)(F)F)cn3)C2)c(CCCO)c1 [Compound 1-176, (S)-3-(2′-methyl-4-(3-(5-(trifluoromethyl)pyridin-2-yloxy)pyrrolidin-1-yl)biphenyl-3-yl)propan-1-ol] | > 1000 | > 3200 | > 1000 | 2550 | – | – | – | –
25 | OCc1csc(-c2cccc(N3CC[C@H](Oc4ccc(C(F)(F)F)cn4)C3)c2)n1 [Compound 1-177] | > 1000 | – | – | – | – | – | – | –
26 | Cc1ccc(O[C@H]2CCN(c3ccc(-c4ccccc4C)nc3CO)C2)nc1 [Compound 1-189, (S)-(3-(3-(5-methylpyridin-2-yloxy)pyrrolidin-1-yl)-6-o-tolylpyridin-2-yl)methanol] | 100 to 1000 | 636 | > 1000 | 1120 | – | – | – | –
27 | Cc1ccc(O[C@H]2CCN(c3ccc(-c4ccccc4C#N)nc3CO)C2)nc1 [Compound 1-190, (S)-2-(6-(hydroxymethyl)-5-(3-(5-methylpyridin-2-yloxy)pyrrolidin-1-yl)pyridin-2-yl)benzonitrile] | > 1000 | > 3200 | > 1000 | > 3200 | – | – | – | –
28 | COc1ccccc1-c1ccc(N2CC[C@H](Oc3ccc(C)cn3)C2)c(CO)n1 [Compound 1-191, (S)-(6-(2-methoxyphenyl)-3-(3-(5-methylpyridin-2-yloxy)pyrrolidin-1-yl)pyridin-2-yl)methanol] | > 1000 | > 3200 | – | – | – | – | – | –
